Species on record: Rattus norvegicus
Assay: Open TG-GATES - Regimen: Daily Repeat
Assay type: toxicity, organism-based, Sprague-Dawley
Design: regimen Daily Repeat, gender Male, age 6 weeks
Conditions: in vivo, po, 300 mg/kg, route gavage, dose level High; for APTT / Bas / Eos / Fbg / Hb / Ht / Lym / MCH / MCHC / MCV / Mono / Neu / PT / Plat / RBC / Ret / WBC: tissue Blood; for KIDNEY_L / KIDNEY_R / KIDNEY_TOTAL: tissue Kidney; for LIVER: tissue Liver; for A/G / ALP / ALT / AST / BUN / CRE / Ca / Cl / DBIL / GLC / IP / K / LDH / Na / PL / RALB / TBIL / TC / TG / TP / gamma-GTP: tissue Plasma

CCc1oc2ccccc2c1C(=O)c1cc(I)c(O)c(I)c1 [BENZIODARONE]
TERMINAL_BW (72 h, time 3 day): 237.2 g | APTT (72 h, time 3 day): 19.4 s | Bas (72 h, time 3 day): 0% | Eos (72 h, time 3 day): 1% | Fbg (72 h, time 3 day): 220.8 mg/dL | Hb (72 h, time 3 day): 13.6 g/dL | Ht (72 h, time 3 day): 40.1% | Lym (72 h, time 3 day): 70.4% | MCH (72 h, time 3 day): 22 pg | MCHC (72 h, time 3 day): 33.9% | MCV (72 h, time 3 day): 64.7 fL | Mono (72 h, time 3 day): 9% | Neu (72 h, time 3 day): 20% | PT (72 h, time 3 day): 11.8 s | Plat (72 h, time 3 day): 119.8 x10_4/uL | RBC (72 h, time 3 day): 619.2 x10_4/ul | Ret (72 h, time 3 day): 7.3% | WBC (72 h, time 3 day): 107.3 x10_2/uL | KIDNEY_L (72 h, time 3 day): 1 g | KIDNEY_R (72 h, time 3 day): 1 g | KIDNEY_TOTAL (72 h, time 3 day): 2.1 g | LIVER (72 h, time 3 day): 15.3 g | A/G (72 h, time 3 day): 2 | ALP (72 h, time 3 day): 951 IU/L | ALT (72 h, time 3 day): 42.6 IU/L | AST (72 h, time 3 day): 69.6 IU/L | BUN (72 h, time 3 day): 16.4 mg/dL | CRE (72 h, time 3 day): 0.6 mg/dL | Ca (72 h, time 3 day): 10.6 mg/dL | Cl (72 h, time 3 day): 104.8 meq/L | DBIL (72 h, time 3 day): 0.038 mg/dL | GLC (72 h, time 3 day): 178.4 mg/dL | IP (72 h, time 3 day): 7 mg/dL | K (72 h, time 3 day): 4.3 meq/L | LDH (72 h, time 3 day): 121.6 IU/L | Na (72 h, time 3 day): 141.4 meq/L | PL (72 h, time 3 day): 132.4 mg/dL | RALB (72 h, time 3 day): 3.8 g/dL | TBIL (72 h, time 3 day): 0.3 mg/dL | TC (72 h, time 3 day): 74.2 mg/dL | TG (72 h, time 3 day): 34.2 mg/dL | TP (72 h, time 3 day): 5.7 g/dL | gamma-GTP (72 h, time 3 day): 1.4 IU/L | TERMINAL_BW ([…], time 7 day): 277.5 g | TERMINAL_BW ([…], time 14 day): 313.1 g | TERMINAL_BW ([…], time 28 day): 377.5 g | APTT ([…], time 7 day): 18.6 s | Bas ([…], time 7 day): 0% | Eos ([…], time 7 day): 0.6% | Fbg ([…], time 7 day): 217 mg/dL | Hb ([…], time 7 day): 13.9 g/dL | Ht ([…], time 7 day): 40.9% | Lym ([…], time 7 day): 82.2% | MCH ([…], time 7 day): 21.5 pg | MCHC ([…], time 7 day): 33.9% | MCV ([…], time 7 day): 63.5 fL | Mono ([…], time 7 day): 6.8% | Neu ([…], time 7 day): 10.8% | PT ([…], time 7 day): 12 s | Plat ([…], time 7 day): 125.7 x10_4/uL | RBC ([…], time 7 day): 644 x10_4/ul | Ret ([…], time 7 day): 4.3% | WBC ([…], time 7 day): 103.8 x10_2/uL | APTT ([…], time 14 day): 19.3 s | Bas ([…], time 14 day): 0% | Eos ([…], time 14 day): 1% | Fbg ([…], time 14 day): 211.8 mg/dL | Hb ([…], time 14 day): 14.4 g/dL | Ht ([…], time 14 day): 42.6% | Lym ([…], time 14 day): 82.8% | MCH ([…], time 14 day): 21.1 pg | MCHC ([…], time 14 day): 33.9% | MCV ([…], time 14 day): 62.1 fL | Mono ([…], time 14 day): 6% | Neu ([…], time 14 day): 10.8% | PT ([…], time 14 day): 12 s | Plat ([…], time 14 day): 116.1 x10_4/uL | RBC ([…], time 14 day): 685.4 x10_4/ul | Ret ([…], time 14 day): 2.8% | WBC ([…], time 14 day): 121 x10_2/uL | APTT ([…], time 28 day): 20.8 s | Bas ([…], time 28 day): 0% | Eos ([…], time 28 day): 1.6% | Fbg ([…], time 28 day): 223 mg/dL | Hb ([…], time 28 day): 15 g/dL | Ht ([…], time 28 day): 44.3% | Lym ([…], time 28 day): 78.6% | MCH ([…], time 28 day): 19.6 pg | MCHC ([…], time 28 day): 33.9% | MCV ([…], time 28 day): 57.8 fL | Mono ([…], time 28 day): 7.4% | Neu ([…], time 28 day): 12.2% | PT ([…], time 28 day): 12.3 s | Plat ([…], time 28 day): 108.9 x10_4/uL | RBC ([…], time 28 day): 768.2 x10_4/ul | Ret ([…], time 28 day): 2.8% | WBC ([…], time 28 day): 122.3 x10_2/uL | KIDNEY_L ([…], time 7 day): 1.2 g | KIDNEY_R ([…], time 7 day): 1.2 g | KIDNEY_TOTAL ([…], time 7 day): 2.4 g | KIDNEY_L ([…], time 14 day): 1.2 g | KIDNEY_R ([…], time 14 day): 1.3 g | KIDNEY_TOTAL ([…], time 14 day): 2.5 g | KIDNEY_L ([…], time 28 day): 1.4 g | KIDNEY_R ([…], time 28 day): 1.4 g | KIDNEY_TOTAL ([…], time 28 day): 2.8 g | LIVER ([…], time 7 day): 17.5 g | LIVER ([…], time 14 day): 19.2 g | LIVER ([…], time 28 day): 21.4 g | A/G ([…], time 7 day): 2 | ALP ([…], time 7 day): 932.2 IU/L | ALT ([…], time 7 day): 35 IU/L | AST ([…], time 7 day): 59.4 IU/L | BUN ([…], time 7 day): 19.2 mg/dL | CRE ([…], time 7 day): 0.6 mg/dL | Ca ([…], time 7 day): 10.9 mg/dL | Cl ([…], time 7 day): 104 meq/L | DBIL ([…], time 7 day): 0.03 mg/dL | GLC ([…], time 7 day): 190.8 mg/dL | IP ([…], time 7 day): 8 mg/dL | K ([…], time 7 day): 4.1 meq/L | LDH ([…], time 7 day): 99 IU/L | Na ([…], time 7 day): 140 meq/L | PL ([…], time 7 day): 133.2 mg/dL | RALB ([…], time 7 day): 3.9 g/dL | TBIL ([…], time 7 day): 0.2 mg/dL | TC ([…], time 7 day): 72.8 mg/dL | TG ([…], time 7 day): 47 mg/dL | TP ([…], time 7 day): 5.9 g/dL | gamma-GTP ([…], time 7 day): 1.6 IU/L | A/G ([…], time 14 day): 1.7 | ALP ([…], time 14 day): 877 IU/L | ALT ([…], time 14 day): 36 IU/L | AST ([…], time 14 day): 63.2 IU/L | BUN ([…], time 14 day): 21.4 mg/dL | CRE ([…], time 14 day): 0.6 mg/dL | Ca ([…], time 14 day): 10.6 mg/dL | Cl ([…], time 14 day): 104.4 meq/L | DBIL ([…], time 14 day): 0.038 mg/dL | GLC ([…], time 14 day): 195.8 mg/dL | IP ([…], time 14 day): 6.7 mg/dL | K ([…], time 14 day): 4.1 meq/L | LDH ([…], time 14 day): 95.8 IU/L | Na ([…], time 14 day): 141.4 meq/L | PL ([…], time 14 day): 123.2 mg/dL | RALB ([…], time 14 day): 3.9 g/dL | TBIL ([…], time 14 day): 0.2 mg/dL | TC ([…], time 14 day): 64.2 mg/dL | TG ([…], time 14 day): 48.2 mg/dL | TP ([…], time 14 day): 6.2 g/dL | gamma-GTP ([…], time 14 day): 1.6 IU/L | A/G ([…], time 28 day): 1.8 | ALP ([…], time 28 day): 700.6 IU/L | ALT ([…], time 28 day): 39.8 IU/L | AST ([…], time 28 day): 63.4 IU/L | BUN ([…], time 28 day): 23 mg/dL | CRE ([…], time 28 day): 0.7 mg/dL | Ca ([…], time 28 day): 10.5 mg/dL | Cl ([…], time 28 day): 106.4 meq/L | DBIL ([…], time 28 day): 0.022 mg/dL | GLC ([…], time 28 day): 192.6 mg/dL | IP ([…], time 28 day): 6.4 mg/dL | K ([…], time 28 day): 4.1 meq/L | LDH ([…], time 28 day): 106.2 IU/L | Na ([…], time 28 day): 140.8 meq/L | PL ([…], time 28 day): 133 mg/dL | RALB ([…], time 28 day): 4 g/dL | TBIL ([…], time 28 day): 0.2 mg/dL | TC ([…], time 28 day): 72 mg/dL | TG ([…], time 28 day): 43.6 mg/dL | TP ([…], time 28 day): 6.2 g/dL | gamma-GTP ([…], time 28 day): 1.6 IU/L
